Measured values as given in patent US10543196B2, “Oral dosage forms of bendamustine” (priority 2008, dated 2020).
Where a name gives a salt, the structure may show the parent alone.

What was measured:
[1] = Stability of an aqueous solution of bendamustine versus pH; type: physicochemical; conditions: pH>5
[2] = patients, oral doses of 250-350 mg, cited from earlier work
[3] = Solubility of bendamustine hydrochloride; type: physicochemical
Source text: Therefore it is not surprising that the oral bendamustine compositions, as investigated by Preiss et al. and Weber gave rise to relatively poor bioavailability results and a large inter-individual variability.

[4] = B6D2F1-mice; cited from earlier work

| SMILES | Hydrolytic decomposition in aqueous solution [1] | Oral bioavailability, range ([2]; capsules) | Solubility in a range of organic solvents [3] | Solubility in ethanol and methanol [3] | Solubility in water ([3]; pH of 2.0) | Time at which maximal plasma levels were detectable after oral administration ([2]; capsules of 25 mg) | Bioavailability (absorption from the gastro-intestinal tract) [4] |
| --- | --- | --- | --- | --- | --- | --- | --- |
| Cn1c(CCCC(=O)O)nc2cc(N(CCCl)CCCl)ccc21 [bendamustine, 4-[5-[bis(2-chloroethyl)amino]-1-methylbenzimidazo-2-yl]butanoic acid] | the decomposition proceeds rapidly | 25-94% | – | – | – | – | – |
| Cn1c(CCCC(=O)O)nc2cc(N(CCCl)CCCl)ccc21 [bendamustine hydrochloride] | – | – | slightly or very slightly soluble | good solubility | sparingly soluble | ≤ 1 h | about 40% |
